Data reported in US12435059B2, “AMP-activated protein kinase inhibitors and methods of making and using the same” (The Regents of the University of Colorado, priority 2019, dated 2025).

Experiments:
Experiment in all cases: biochemical
Format in all cases: binding
468 kinases [1] = target: 468 kinases (Homo sapiens, UniProt P07332); conditions: FES; read-out: % Inhibition @ 100 nM
468 kinases [2] = target: 468 kinases (Homo sapiens, UniProt O15075); conditions: DCAMKL1; read-out: % Inhibition @ 100 nM
468 kinases [3] = target: 468 kinases (Homo sapiens, UniProt Q9P0L2); conditions: MARK1; read-out: % Inhibition @ 100 nM
468 kinases [4] = target: 468 kinases (Homo sapiens, UniProt P46734); conditions: MEK3; read-out: % Inhibition @ 100 nM
468 kinases [5] = target: 468 kinases (Homo sapiens, UniProt Q96L34); conditions: MARK4; read-out: % Inhibition @ 100 nM
468 kinases [6] = target: 468 kinases (Homo sapiens, UniProt Q9HC98); conditions: NEK6; read-out: % Inhibition @ 100 nM
468 kinases [7] = target: 468 kinases (Homo sapiens, UniProt O43353); conditions: RIPK2; read-out: % Inhibition @ 100 nM
468 kinases [8] = target: 468 kinases (Homo sapiens, UniProt O95819); conditions: MAP4K4; read-out: % Inhibition @ 100 nM
468 kinases [9] = target: 468 kinases (Homo sapiens, UniProt P42336, I800L); conditions: PIK3CA(I800L); read-out: % Inhibition @ 100 nM
468 kinases [10] = target: 468 kinases (Homo sapiens, UniProt O15146); conditions: MUSK; read-out: % Inhibition @ 100 nM
468 kinases [11] = target: 468 kinases (Homo sapiens, UniProt Q13554); conditions: CAMK2B; read-out: % Inhibition @ 100 nM
468 kinases [12] = target: 468 kinases (Homo sapiens, UniProt Q16584); conditions: MLK3; read-out: % Inhibition @ 100 nM
468 kinases [13] = target: 468 kinases (Homo sapiens, UniProt P33981); conditions: TTK; read-out: % Inhibition @ 100 nM
468 kinases [14] = target: 468 kinases (Homo sapiens, UniProt P49137); conditions: MAPKAPK2; read-out: % Inhibition @ 100 nM
468 kinases [15] = target: 468 kinases (Homo sapiens, UniProt Q32MK0); conditions: MLCK; read-out: % Inhibition @ 100 nM
468 kinases [16] = target: 468 kinases (Homo sapiens, UniProt O14976); conditions: GAK; read-out: % Inhibition @ 100 nM
468 kinases [17] = target: 468 kinases (Homo sapiens, UniProt O94806); conditions: PRKD3; read-out: % Inhibition @ 100 nM
468 kinases [18] = target: 468 kinases (Homo sapiens, UniProt P07949, M918T); conditions: RET(M918T); read-out: % Inhibition @ 100 nM
468 kinases [19] = target: 468 kinases (Homo sapiens, UniProt Q8IWQ3); conditions: BRSK2; read-out: % Inhibition @ 100 nM
468 kinases [20] = target: 468 kinases (Homo sapiens, UniProt Q15835); conditions: GRK1; read-out: % Inhibition @ 100 nM
468 kinases [21] = target: 468 kinases (Homo sapiens, UniProt Q86YV6); conditions: MYLK4; read-out: % Inhibition @ 100 nM
468 kinases [22] = target: 468 kinases (Homo sapiens, UniProt P37173); conditions: TGFBR2; read-out: % Inhibition @ 100 nM
468 kinases [23] = target: 468 kinases (Homo sapiens, UniProt Q2M2I8); conditions: AAK1; read-out: % Inhibition @ 100 nM
468 kinases [24] = target: 468 kinases (Homo sapiens, UniProt Q9C098); conditions: DCAMKL3; read-out: % Inhibition @ 100 nM
468 kinases [25] = target: 468 kinases (Homo sapiens, UniProt Q9NRM7); conditions: LATS2; read-out: % Inhibition @ 100 nM
468 kinases [26] = target: 468 kinases (Homo sapiens, UniProt P78356); conditions: PIP5K2B; read-out: % Inhibition @ 100 nM
468 kinases [27] = target: 468 kinases (Homo sapiens, UniProt P08069); conditions: IGFIR; read-out: % Inhibition @ 100 nM
468 kinases [28] = target: 468 kinases (Homo sapiens, UniProt O14965); conditions: AURKA; read-out: % Inhibition @ 100 nM
468 kinases [29] = target: 468 kinases (Homo sapiens, UniProt Q9Y6M4); conditions: CSNK1G3; read-out: % Inhibition @ 100 nM
468 kinases [30] = target: 468 kinases (Homo sapiens, UniProt P42336, M1043I); conditions: PIK3CA(M10431); read-out: % Inhibition @ 100 nM
468 kinases [31] = target: 468 kinases (Homo sapiens, UniProt Q9UBE8); conditions: NLK; read-out: % Inhibition @ 100 nM
468 kinases [32] = target: 468 kinases (Homo sapiens, UniProt Q9Y2I7); conditions: PIKFYVE; read-out: % Inhibition @ 100 nM
468 kinases [33] = target: 468 kinases (Homo sapiens, UniProt Q9UKI8); conditions: TLK1; read-out: % Inhibition @ 100 nM

`CCN(CC)CCNC(=O)c1c(C)[nH]c(/C=C2\C(=O)Nc3ccc(CCO)cc32)c1C` [Compound No. 10, (Z)—N-(2-(Diethylamino)ethyl)-5-((5-(2-hydroxyethyl)-2-oxoindolin-3-ylidene)methyl)-2,4-dimethyl-1H-pyrrole-3-carboxamide] showed an inhibition at 0.1 µM (468 kinases [1]) of 20%, an inhibition at 0.1 µM (468 kinases [2]) of 32% and an inhibition at 0.1 µM (468 kinases [3]) of 39%. For the same compound, the inhibition at 0.1 µM (468 kinases [4]) was 9%, the inhibition at 0.1 µM (468 kinases [5]) was 41% and the inhibition at 0.1 µM (468 kinases [6]) was 19%. The inhibition at 0.1 µM (468 kinases [7]) was 0%, the inhibition at 0.1 µM (468 kinases [8]) was 47% and the inhibition at 0.1 µM (468 kinases [9]) was 41%. It also gave an inhibition at 0.1 µM (468 kinases [10]) of 28%, an inhibition at 0.1 µM (468 kinases [11]) of 0% and an inhibition at 0.1 µM (468 kinases [12]) of 20%. The inhibition at 0.1 µM (468 kinases [13]) was 0%, the inhibition at 0.1 µM (468 kinases [14]) was 0% and the inhibition at 0.1 µM (468 kinases [15]) was 0%. For the same compound, the inhibition at 0.1 µM (468 kinases [16]) was 36%, the inhibition at 0.1 µM (468 kinases [17]) was 0% and the inhibition at 0.1 µM (468 kinases [18]) was 65%. The inhibition at 0.1 µM (468 kinases [19]) was 32%, the inhibition at 0.1 µM (468 kinases [20]) was 39% and the inhibition at 0.1 µM (468 kinases [21]) was 32%. The inhibition at 0.1 µM (468 kinases [22]) was 0%, the inhibition at 0.1 µM (468 kinases [23]) was 88% and the inhibition at 0.1 µM (468 kinases [24]) was 73%. The inhibition at 0.1 µM (468 kinases [25]) was 4%, the inhibition at 0.1 µM (468 kinases [26]) was 91.7% and the inhibition at 0.1 µM (468 kinases [27]) was 0%. The inhibition at 0.1 µM (468 kinases [28]) was 0%, the inhibition at 0.1 µM (468 kinases [29]) was 6% and the inhibition at 0.1 µM (468 kinases [30]) was 0%. For the same compound, the inhibition at 0.1 µM (468 kinases [31]) was 5%, the inhibition at 0.1 µM (468 kinases [32]) was 6% and the inhibition at 0.1 µM (468 kinases [33]) was 2%.

With `CCN(CC)CCNC(=O)c1c(C)[nH]c(/C=C2\C(=O)Nc3ccc(CCC(N)=O)cc32)c1C` [Compound No. 16, (Z)-5-((5-(3-Amino-3-oxopropyl)-2-oxoindolin-3-ylidene)methyl)-N-(2-(diethylamino)ethyl)-2,4-dimethyl-1H-pyrrole-3-carboxamide] the inhibition at 0.1 µM (468 kinases [1]) was 0%, the inhibition at 0.1 µM (468 kinases [2]) was 32% and the inhibition at 0.1 µM (468 kinases [3]) was 13%. It also gave an inhibition at 0.1 µM (468 kinases [4]) of 35%, an inhibition at 0.1 µM (468 kinases [5]) of 12% and an inhibition at 0.1 µM (468 kinases [6]) of 0%. It also gave an inhibition at 0.1 µM (468 kinases [7]) of 18%, an inhibition at 0.1 µM (468 kinases [8]) of 46% and an inhibition at 0.1 µM (468 kinases [9]) of 20%. The inhibition at 0.1 µM (468 kinases [10]) was 15%, the inhibition at 0.1 µM (468 kinases [11]) was 10% and the inhibition at 0.1 µM (468 kinases [12]) was 0%. It also gave an inhibition at 0.1 µM (468 kinases [13]) of 8%, an inhibition at 0.1 µM (468 kinases [14]) of 0% and an inhibition at 0.1 µM (468 kinases [15]) of 0%. It also gave an inhibition at 0.1 µM (468 kinases [16]) of 35%, an inhibition at 0.1 µM (468 kinases [17]) of 53% and an inhibition at 0.1 µM (468 kinases [18]) of 68%. The inhibition at 0.1 µM (468 kinases [19]) was 25%, the inhibition at 0.1 µM (468 kinases [20]) was 37% and the inhibition at 0.1 µM (468 kinases [21]) was 24%. The inhibition at 0.1 µM (468 kinases [22]) was 0%, the inhibition at 0.1 µM (468 kinases [23]) was 89% and the inhibition at 0.1 µM (468 kinases [24]) was 88%. It also gave an inhibition at 0.1 µM (468 kinases [25]) of 13%, an inhibition at 0.1 µM (468 kinases [26]) of 86% and an inhibition at 0.1 µM (468 kinases [27]) of 6%. For the same compound, the inhibition at 0.1 µM (468 kinases [28]) was 41%, the inhibition at 0.1 µM (468 kinases [29]) was 5% and the inhibition at 0.1 µM (468 kinases [30]) was 12%. It also gave an inhibition at 0.1 µM (468 kinases [31]) of 8%, an inhibition at 0.1 µM (468 kinases [32]) of 27% and an inhibition at 0.1 µM (468 kinases [33]) of 0%.
